Laboratory results reported in patent US9545387B2, “Composition and kit comprising piperazine derivatives and metformin, and use thereof in the treatment of diabetes” (METABOLYS, priority 2012, dated 2017).

Key:
[1] = oral glucose tolerance test (OGTT) in normal Swiss mice fasting for 17 hours, additive effect with metformin; format: in vivo; settings: metformin 300 mg/kg per os; for Glycaemia, Time −60 mn / Glycaemia, Time 30 mn / Glycaemia, Time 60 mn / Glycaemia, Time 120 mn / Glycaemia, Time 0 mn / Glycaemia, Time 90 mn: OGTT; for Glycaemia, Time −60 mn: given 1 h before glucose load, time −60 min; for Glycaemia, Time 30 mn: time 30 min; for Glycaemia, Time 60 mn: time 60 min; for Glycaemia, Time 120 mn: time 120 min; for Glycaemia, Time 0 mn: time 0 min; for Glycaemia, Time 90 mn: time 90 min
[2] = as above; format: in vivo; settings: compound 1 50 mg/kg per os, metformin 300 mg/kg per os; for Glycaemia, Time 0 mn / Glycaemia, Time 90 mn: Table 1, OGTT; for Glycaemia, Time 0 mn: time 0 min; for Glycaemia, Time 90 mn: time 90 min; for drop of glycaemia area under curve after glucose load: study 1
Method: The anti-diabetic action of the compounds in Examples 1 and 2 were determined via oral route in normal Swiss mice fasting for 17 hours. […] The animals were housed for a minimum time of one week after delivery (ordered from Charles River France) up until the day of experimentation in an animal facility at a temperature regulated at 21-22° C. and subjected to a light cycle (from 9 h to 17 h) and dark cycle (from 19 h to 7 h). They were fed a maintenance diet: water and food were provided ? ad libitum ? . The animals were treated via oral route 1 hour before oral administration of a glucose load (oral glucose tolerance test—OGTT). Glycaemia was measured at various times before and after this glucose load. This glycaemia was measured using a glucometer (Lifescan OneTouch Ultra, Lifescan, Johnson and Johnson Company) and OneTouch Ultra glycaemia test strips. In the Tables below n represents the number of mice included in the study. • 1. […] The 2 compounds were administered successively one hour before the glucose load. All the groups were composed of 5 mice (metformin alone, compound 1 alone, metformin+compound 1, control group with the carrier alone). Blood samples were taken at 0, 30, 60, 90 and 120 minutes after the glucose load.

[3] = test system: liver cells of rats fasting for 48 h; settings: rat liver cells; stated in words, no data shown; cited from earlier work
[4] = test system: liver cells of rats fasting for 48 h; experiment: metabolism of lactate and glutamine in liver cells of rats fasting for 48 h; format: cell-based, rat
Method: […] Enzymatic assay of the consumption of lactate and glutamine was performed, the production of their metabolites was also analysed. Finally the ATP cell concentration was determined.
Complete oxidation of a substrate was measured by the lowest CO2 value produced from one of its carbons. As a result, this carbon is found in greater quantity in non-volatile products (other than CO2) formed during the metabolism of this substrate.
Complete oxidation of lactate can therefore be determined by measuring the production of 13CO2 from 2-13C-lactate.
Complete oxidation of glutamine can be examined by measuring the production of 13CO2 from 3-13C-glutamine (Biochem. J., 2004, 378, 485-495).

[5] = glycaemia and circulating insulin before and after a glucose load in STZ-N0a rats; format: in vivo; settings: for Glycaemia, Time −60 mn / Insulin, Time −60 mn: time −60 min; for Glycaemia, Time 0 mn / Insulin, Time 0 mn: time 0 min; for Glycaemia, Time 30 mn / Insulin, Time 30 mn: time 30 min; for Glycaemia, Time 60 mn / Insulin, Time 60 mn: time 60 min; for Glycaemia, Time 90 mn / Insulin, Time 90 mn: time 90 min; for Glycaemia, Time 120 mn / Insulin, Time 120 mn: time 120 min
Source text: An increase in insulin secretion was noted solely when compound 2 caused an increases in the peripheral consumption of glucose by skeletal muscle (Tables 9 to 12 which give a mean of the results obtained). […] It is shown in Tables 11 and 12 that if there is no increase in muscle consumption of glucose, there is no increase in the level of circulating insulin.

[6] = Table 1, compound 1 50 mg/kg per os
[7] = Table 2, compound 2 50 mg/kg per os
[8] = Table 3, compound 3 50 mg/kg per os
[9] = Table 4, compound 4 50 mg/kg per os
[10] = study 2, compound 2 50 mg/kg per os
[11] = 5 mM 2-13C-lactate + 0.5 mM compound 2, n = 4
[12] = 5 mM 3-13C-glutamine + 0.5 mM compound 2, n = 4
[13] = 5 mM glutamine + 2 mM compound 2, n = 6
[14] = 5 mM lactate + 0.5 mM compound 2, n = 3
[15] = 5 mM lactate + 2 mM compound 2, n = 6
[16] = Table 11, compound 2, title 25 mg/kg (row prints 200 mg/kg)
[17] = Table 12, compound 2, title 25 mg/kg (row prints 200 mg/kg)

## O=C(O)CCC(=O)c1ccc(OCCN2CCN(c3ccccc3F)CC2)cc1 [Compound 1]
[1]; [6]
  Glycaemia, Time −60 mn: 5.0 ± 0.2 mM/liter
  Glycaemia, Time 30 mn: 15.2 ± 1.9 mM/liter
  Glycaemia, Time 60 mn: 10.6 ± 0.2 mM/liter
  Glycaemia, Time 120 mn: 5.3 ± 0.2 mM/liter
[2]
  Glycaemia, Time 0 mn: 4.5 ± 0.3 mM/liter
  Glycaemia, Time 90 mn: 6.5 ± 0.5 mM/liter
  drop of glycaemia area under curve after glucose load: 42.5%

## CN(C)C(=N)N=C(N)N [Metformin, metformin]
[1]; [6]
  Glycaemia, Time −60 mn: 3.7 ± 0.3 mM/liter
  Glycaemia, Time 30 mn: 8.6 ± 0.5 mM/liter
  Glycaemia, Time 60 mn: 9.4 ± 0.8 mM/liter
  Glycaemia, Time 120 mn: 6.2 ± 0.8 mM/liter
[1]; [7]
  Glycaemia, Time −60 mn: 3.8 ± 0.1 mM/liter
  Glycaemia, Time 0 mn: 3.6 ± 0.3 mM/liter
  Glycaemia, Time 30 mn: 11.2 ± 0.3 mM/liter
  Glycaemia, Time 60 mn: 9.5 ± 0.4 mM/liter
  Glycaemia, Time 90 mn: 8.0 ± 1.3 mM/liter
  Glycaemia, Time 120 mn: 8.2 ± 0.7 mM/liter
[1]; [8]
  Glycaemia, Time −60 mn: 5.6 ± 0.3 mM/liter
  Glycaemia, Time 0 mn: 6.0 ± 0.3 mM/liter
  Glycaemia, Time 30 mn: 9.2 ± 0.8 mM/liter
  Glycaemia, Time 60 mn: 8.2 ± 0.4 mM/liter
  Glycaemia, Time 90 mn: 7.7 ± 0.2 mM/liter
  Glycaemia, Time 120 mn: 9.6 ± 0.8 mM/liter
[1]; [9]
  Glycaemia, Time −60 mn: 4.2 ± 0.3 mM/liter
  Glycaemia, Time 0 mn: 3.6 ± 0.3 mM/liter
  Glycaemia, Time 30 mn: 9.5 ± 0.6 mM/liter
  Glycaemia, Time 60 mn: 11.2 ± 1.8 mM/liter
  Glycaemia, Time 90 mn: 9.6 ± 0.9 mM/liter
  Glycaemia, Time 120 mn: 8.6 ± 0.7 mM/liter
[1]; [10]
  drop of glycaemia area under curve after glucose load: 38.7%
[1]; study 3, compound 3 50 mg/kg per os
  drop of glycaemia area under curve after glucose load: 68.5%
[1]; study 4, compound 4 50 mg/kg per os
  drop of glycaemia area under curve after glucose load: 54.3%
[2]
  Glycaemia, Time 0 mn: 3.2 ± 0.3 mM/liter
  Glycaemia, Time 90 mn: 7.7 ± 1.0 mM/liter
  drop of glycaemia area under curve after glucose load: 44.2%
[3]
  effect on the production of 13CO2 from 2-13C-lactate: reduces
  effect on the synthesis of glucose: reduces

## O=C(O)CCC(=O)c1ccc(OCCN2CCN(c3ccccn3)CC2)cc1 [Compound 2]
[1]; [7]
  Glycaemia, Time −60 mn: 4.6 ± 0.4 mM/liter
  Glycaemia, Time 0 mn: 4.9 ± 0.2 mM/liter
  Glycaemia, Time 30 mn: 14.5 ± 1.4 mM/liter
  Glycaemia, Time 60 mn: 10.4 ± 0.5 mM/liter
  Glycaemia, Time 90 mn: 8.3 ± 1.1 mM/liter
  Glycaemia, Time 120 mn: 6.8 ± 0.6 mM/liter
[1]; [10]
  drop of glycaemia area under curve after glucose load: 40.5%
[4]; 5 mM 2-13C-lactate + 0.5 mM compound 2
  reduction of the consumption of lactate: 10%
[4]; [11]
  13CO2 production: 5.99 ± 0.09 μmoles/flask
  ATP concentration: 188.4 ± 25.2 nanomoles per 6 precisely cut liver section
  Glucose production: 4.69 ± 0.14 μmoles/flask
[4]; [12]
  ATP concentration: 362.9 ± 53.3 (NS) nanomoles per 6 precisely cut liver sections
  Glucose production: 6.05 ± 0.30 μmoles/flask
  Production of 13CO2: 1.86 ± 0.28 μmoles/flask
[4]; 5 mM glutamine + 2 mM compound 2
  ATP concentration: 34.2 ± 7.6 nanomoles per 2 precisely cut liver sections
[4]; 5 mM glutamine + 2 mM compound 2, consumption of glutamine − (2 * glucose + pyruvate + lactate + alanine + glutamate products)
  Complete oxidation: 0.59 ± 0.35* μmoles/flask
[4]; [13]
  Consumption of substrate (—): −2.77 ± 0.15 μmoles/flask
  Glucose production: 0.78 ± 0.09 μmoles/flask
[4]; [14]
  Sum of labelling of non-volatile products from lactate metabolism, 1-13C-lactate: 1.36 ± 0.09*+ μmoles of carbon 13/flask
  Sum of labelling of non-volatile products from lactate metabolism, 2-13C-lactate: 4.94 ± 0.15 μmoles of carbon 13/flask
  Sum of labelling of non-volatile products from lactate metabolism, 3-13C-lactate: 4.06 ± 0.15*+ μmoles of carbon 13/flask
[4]; 5 mM lactate + 2 mM compound 2
  ATP concentration: 31.8 ± 8.0 nanomoles per 2 precisely cut liver sections
[4]; 5 mM lactate + 2 mM compound 2, consumption of lactate − (2 * glucose + pyruvate + alanine products)
  Complete oxidation: 0.64 ± 0.30* μmoles/flask
[4]; 5 mM lactate + 2 mM compound 2, lactate consumption minus twice glucose production
  NADH mitochondrial transport: 1.06 ± 0.33 μmoles/flask
[4]; [15]
  Consumption of substrate (—): −2.59 ± 0.34 μmoles/flask
  Glucose production: 0.76 ± 0.13 μmoles/flask
[5]; Table 9, compound 2 200 mg/kg
  Glycaemia AUC: 356
  Glycaemia, Time 0 mn: 8.75 mmol/L
  Glycaemia, Time 30 mn: 12.97 mmol/L
  Glycaemia, Time 60 mn: 13.15 mmol/L
  Glycaemia, Time 90 mn: 11.37 mmol/L
  Glycaemia, Time 120 mn: 10.13 mmol/L
[5]; Table 9, compound 2 200 mg/kg, glucose load at 0 min
  Glycaemia, Time −60 mn: 4.75 mmol/L
[5]; Table 10, compound 2 200 mg/kg, circulating insulin
  Insulin, Time −60 mn: 0.47 ng/mL
[5]; Table 10, compound 2 200 mg/kg
  Insulin, Time 0 mn: 0.41 ng/mL
  Insulin, Time 30 mn: 0.70 ng/mL
  Insulin, Time 60 mn: 0.59 ng/mL
  Insulin, Time 90 mn: 0.54 ng/mL
  Insulin, Time 120 mn: 0.53 ng/mL
[5]; [16]
  Glycaemia AUC: 1048
  Glycaemia, Time 0 mn: 5.23 mmol/L
  Glycaemia, Time 30 mn: 11.15 mmol/L
  Glycaemia, Time 60 mn: 16.21 mmol/L
  Glycaemia, Time 90 mn: 14.36 mmol/L
  Glycaemia, Time 120 mn: 15.33 mmol/L
  Glycaemia, Time −60 mn: 5.12 mmol/L
[5]; [17]
  Insulin, Time 0 mn: 1.41 ng/mL
  Insulin, Time 30 mn: 1.76 ng/mL
  Insulin, Time 60 mn: 1.48 ng/mL
  Insulin, Time 90 mn: 1.61 ng/mL
  Insulin, Time 120 mn: 1.61 ng/mL
  Insulin, Time −60 mn: 1.11 ng/mL
